The record followed here is publication PMC12040169 (PLOS Biology, 2025).

The series can be described thus: in vitro. The settings on record: human, hela cells, % viability.
Regarding `COc1ccccc1CN(Cc1cccnc1)C(=O)CNC(C)=O` [CBK306843], the viability (commonly a read-out of living cells in per cent, often relative to untreated cells) at 28.5 h, 10 µM amounted to 96.2%.
The same measure for `Cc1nnc([C@H]2CCN(Cc3ccccc3)C2)o1` [CBK289390]: 114%.
The same measure for `COc1cc(CNc2ccc(N3CCCCC3)cc2)cc(Cl)c1OCc1cccs1` [CBK074586]: 101%; for `COc1cccc(NC(=O)C2CN(S(=O)(=O)c3ccccc3)CCN2S(=O)(=O)c2ccccc2)c1` (stereo not drawn) [CBK262694]: 85.9%; for `Fc1ccc(-c2nccnc2NCc2ccncc2)cc1Cl` [CBK037422]: 95.5%.
The same measure for `COc1ccc(CN2CCCc3ccccc32)cc1` [CBK126458]: 95.6%; for `N=C1NC(=O)/C(=C\c2ccc(-c3ccc(Br)cc3)o2)S1` [CBK261409]: 69.9%.
`Cc1cc(C(=O)N2CCN(Cc3ccco3)C[C@@H]2C(C)C)c(C)[nH]1` [CBK284254]: the viability at 28.5 h, 10 µM came to 88.2%.
The same measure for `Cc1occc1-c1nnc(SCC(=O)Nc2c(C)n(C)n(-c3ccccc3)c2=O)o1` [CBK269042]: 90.9%; for `CCOC(=O)c1[nH]c2ccccc2c1NC(=O)c1ccc(OC(F)(F)F)cc1` [CBK160157]: 87.8%.
Regarding `Fc1ccc(Oc2nccnc2N2CCN(CC3CC3)CC2)cc1` [CBK083033T], the viability at 28.5 h, 10 µM is 91.8%.
The same measure for `CC(C)Cc1csc2nc(-c3ccc(Br)cc3)oc(=O)c12` [CBK026692]: 96.7%; for `CC(C)(C)OC(=O)N1CCC(Oc2cncc(Cl)n2)CC1` [CBK001762]: 98%; for `C=CCn1c(-c2sc(NC(=O)c3[nH]c4c(c3C)C(=O)CC(C)(C)C4)nc2C)n[nH]c1=S` [CBK297757]: 91%.
The same measure for `Cc1nc(-c2ccccc2)sc1C(=O)C1=C(O)C(=O)N(CCN2CCOCC2)C1c1cccs1` (stereo not drawn) [CBK266520]: 102%; for `COC(=O)c1sccc1S(=O)(=O)n1ccc2ccc(Br)cc21` [CBK003528]: 92.6%; for `O=c1[nH]c(=O)n([C@H]2C[C@@H](O)[C@@H](CO)O2)cc1CCO` [CBK201239]: 99.6%.
The same measure for `O=C(Cc1c[nH]c2ccccc12)N1CCC2(CCCN(Cc3c(F)cccc3F)C2)C1` (stereo not drawn) [CBK132031]: 115%; for `O=C(CN1C(=O)c2ccccc2C1=O)NCC1COc2ccccc2O1` (stereo not drawn) [CBK222526]: 96.8%; for `COc1ccc([C@@]23CC[C@@H](NC(=O)CNc4ccc(Cl)c(Cl)c4)C[C@@H]2N(C)CC3)cc1OC` [CBK038220]: 94.4%.
Regarding `O=C(O)c1cccc(OCc2nnnn2-c2ccc(Br)cc2)c1` [CBK286744], the viability at 28.5 h, 10 µM worked out at 82.7%.
The same measure for `COC(=O)Cn1c(=O)sc2cccc(Cl)c21` [CBK026076]: 93.9%.
For the compound `Cc1cc(NS(=O)(=O)c2cc(C(=O)O)c(Cl)cc2F)n(C)n1` [CBK067260], the viability at 28.5 h, 10 µM is 102%.
The same measure for `Cc1nn(-c2ccccn2)c2c1-c1oncc1CC2` [CBK287280]: 90.7%.
The same measure for `CC1=C(C)CC(C(=O)NC(C)CCc2ccccc2)C(C(=O)O)C1` (stereo not drawn) [CBK265452]: 99.9%; for `CC1(C)CC2(CC(C)(C(=O)CSc3nnc(-c4ccccc4Br)[nH]3)OC2=O)C(=O)O1` (stereo not drawn) [CBK266713]: 102%; for `CSCCN1CCC(Oc2nccnc2OCCN2C(=O)CCC2=O)CC1` [CBK084351]: 100%.
The same measure for `CC(NC(=O)CCc1ccncc1)c1nc2ccccc2s1` (stereo not drawn) [CBK281666]: 98.9%; for `O=[N+]([O-])c1ccc(-c2ccc(/C=N/Nc3nnc4c(n3)[nH]c3ccccc34)o2)cc1` [CBK262029]: 90.4%; for `CC(C)(C)c1cc(C[C@H]2CNCC[C@H]2CC(=O)Nc2nccs2)no1` [CBK288798]: 81%.
In the case of `CCN(CC)CCN(C(=O)N1CCCC1)c1c(C)cccc1C` [CBK023237C], the viability at 28.5 h, 10 µM stood at 98.7%.
The same measure for `COc1ccc(-c2cc(C(=O)NCCc3ccc(N)cc3)cnc2-c2ccc(Cl)cc2)cc1` [CBK037561]: 91.6%; for `CC(C)(C)OC(=O)NCc1ccc(-c2nnc(CC(=O)O)o2)cc1` [CBK169899D]: 96.5%.
For the compound `COc1ccc(C(CC(=O)O)NC(=O)c2ccc(Cl)cc2Cl)cc1` (stereo not drawn) [CBK269131], the viability at 28.5 h, 10 µM came out at 91.8%.
The same measure for `Cc1ccc(C#N)cc1S(=O)(=O)NC(=O)CC1CCOc2ccccc21` (stereo not drawn) [CBK306476]: 85.5%; for `Cc1nc2c(cc(OCC(O)COc3ccc(C#N)cc3)c3ccsc32)s1` (stereo not drawn) [CBK296632]: 84.6%; for `O=C(NCCC1SC(NC2CCCCCC2)=NC1=O)Nc1ccc(C(F)(F)F)cc1Cl` (stereo not drawn) [CBK067682]: 89.9%.
The same measure for `CCc1nc2c(OCCOC)cccn2c1N(C)C(=O)c1ccccc1F` [CBK147722]: 91.3%; for `C=CCOc1ccc(CNCCN2CCOCC2)cc1` [CBK278215C]: 94.3%; for `O=C(COc1ccc(S(=O)(=O)NC2CCCCC2)cc1Cl)Nc1ccc2c(c1)OCO2` [CBK267615]: 90.5%.
In the case of `O=C(O)c1cccc(OCCNS(=O)(=O)c2ccc(N3CCCC3=O)cc2)c1` [CBK299779], the viability at 28.5 h, 10 µM is 97.3%.
The same measure for `CC(=O)N1CCc2cc(NC(=O)c3cc4cc(C)ccc4o3)ccc21` [CBK281470]: 86.2%.
On to `CCC1CCCCN1C(=O)c1cc2cc(Cl)ccc2[nH]1` (stereo not drawn) [CBK074329], for which the viability at 28.5 h, 10 µM was determined as 102%.
The same measure for `Cc1cccc(CC(=O)N2CCC(Cc3cccc(-c4cccs4)c3)(C(N)=O)CC2)c1` [CBK285752]: 107%.
The same measure for `CCOc1ccccc1CN1CC2CCCN2C[C@@H]1C` (stereo partly drawn) [CBK285435]: 94.7%.
The same measure for `Cc1ccc2c(N)c(C(=O)c3cccs3)sc2n1` [CBK115369]: 92.5%.
In the case of `N#CCSc1nc(-c2cccnc2)ccc1C(=O)O` [CBK269387], the viability at 28.5 h, 10 µM stood at 106%.
The same measure for `CN(C)C(=O)Cn1nc(-c2cccc(-n3cccc3)c2)oc1=O` [CBK283759]: 103%; for `CC12CC(NC(=O)N1c1ccc(C(=O)O)cc1)c1ccccc1O2` (stereo not drawn) [CBK287226]: 82.2%.
Turning to `CC1CCN(Cc2ccc(-c3nnn(CC(=O)NCc4ccc(S(N)(=O)=O)cc4)n3)cc2)CC1` [CBK144141C], the viability at 28.5 h, 10 µM was 93.3%.
The same measure for `O=C(NC1CCCCC1)NS(=O)(=O)c1ccc(CCNC(=O)c2cccs2)cc1` [CBK011888]: 86.3%; for `COc1cc(OC)nc(C(NC(=O)C2CCN(Cc3cccn3C)CC2)c2ccc(F)cc2)n1` (stereo not drawn) [CBK148170]: 104%.
The same measure for `CN1C(=O)COc2ccccc2CCCC[C@@H]2[C@H]1CCCN2C(=O)CCCn1cncn1` [CBK292182]: 95.3%.
Turning to `CCNC(=O)N1CC2(CCN(Cc3ccc4ccccc4c3)CC2)c2ccccc21` [CBK126696], the viability at 28.5 h, 10 µM was found to be 90%.
The same measure for `CCC1CCc2c(sc(NC(=O)c3cnccn3)c2C(N)=O)C1` (stereo not drawn) [CBK262649]: 105%; for `COCCNS(=O)(=O)c1ccc(Br)c(C(=O)N(C)Cc2cnn(C)c2)c1` [CBK304795]: 96.6%; for `COc1ccc(NC(=O)C2CCCN2c2nc(O)cc(C(F)(F)F)n2)cc1` (stereo not drawn) [CBK003704]: 77%.
The same measure for `Cc1ccc(C2=CCN(CC(=O)NCc3ccco3)CC2)o1` [CBK283632]: 107%; for `Cn1nccc1NS(=O)(=O)c1cc(C(=O)O)c(Cl)cc1F` [CBK062712]: 106%.
In the case of `COc1ncccc1C(NC(=O)C1CCN(C(=O)OCc2ccccc2)CC1)c1ccccc1C` (stereo not drawn) [CBK076802], the viability at 28.5 h, 10 µM was 90.8%.
With `CC(C)CN1CCN(S(=O)(=O)c2ccc(C(F)(F)F)cc2Cl)CC1` [CBK062740], the viability at 28.5 h, 10 µM was found to be 113%.
The same measure for `COc1nc(N)nc(C/C(=N\NC(=O)c2cccnc2)C2CC2)n1` [CBK019872]: 90.9%; for `CC1CN(c2cc(CO)c(F)cn2)CC2(CCOCC2)O1` (stereo not drawn) [CBK304773]: 91.9%.
Regarding `CC1CC(C)CN(CCCNC(=O)c2cc(-c3cccs3)no2)C1` (stereo not drawn) [CBK281949], the viability at 28.5 h, 10 µM is 93%.
The same measure for `N=C(Nc1nc(=O)cc(CSc2ccc(Cl)cc2)[nH]1)Nc1cccc2ccccc12` [CBK266504]: 98.9%.
In the case of `Cc1cc(C)c(C)c(OCC(=O)N(Cc2nc(-c3ccccc3)no2)C2CCCCC2)c1` [CBK268974], the viability at 28.5 h, 10 µM stood at 104%.
As to `COc1cc(Nc2cncc(-c3ccccc3CO)n2)cc(OC)c1OC` [CBK037160], the viability at 28.5 h, 10 µM turned out to be 95.4%.
For the compound `Cc1cc(NC(=O)C(C)(C)C)nc2c1c(=O)oc1ccccc12` [CBK287443], the viability at 28.5 h, 10 µM stood at 78.7%.
In the case of `O=c1c([N+](=O)[O-])c[nH]c2nc(-c3ccncc3)nn12` [CBK288531N], the viability at 28.5 h, 10 µM amounted to 87.8%.
The same measure for `COc1ccccc1CN(C)C(C)C(=O)Nc1ccc(NC(C)=O)cc1` (stereo not drawn) [CBK305873]: 100%; for `COc1ccc(CCNC(=O)N2CCCC(C(=O)O)C2)cc1` (stereo not drawn) [CBK161367]: 101%; for `C=CCN1C(=O)/C(=C2/Sc3ccc(OC)cc3N2C)S/C1=N\c1cc(C#N)ccc1NCC` [CBK262431]: 108%.
The same measure for `COc1cc(C(c2c(C(=O)O)[nH]c3ccccc23)c2c(C(=O)O)[nH]c3ccccc23)cc(I)c1O` [CBK267804]: 90.6%; for `CC1CC1C(=O)NCCN1CCC(O)(c2ccc(F)cc2)CC1` (stereo not drawn) [CBK283168]: 96.7%.
For `CCOC(=O)C1CSCCN1C(=O)c1ccc(-n2nc(C)cc2C)cc1` (stereo not drawn) [CBK304517], the viability at 28.5 h, 10 µM amounted to 86.4%.
The same measure for `Oc1cccnc1CCc1ccccc1` [CBK026334C]: 100%; for `CC(C)[C@H](CO)NC(=O)c1cnc(-c2ccccc2)c(-c2ccncc2)c1` [CBK036691]: 115%; for `CC1CCCN(Cc2c(C3CCOCC3)[nH]c3ncccc23)C1` (stereo not drawn) [CBK284687]: 97%.
